Results taken from patent publication US20130196977A1, “USE OF ORGANIC COMPOUNDS” (priority 2004, published 2013).
“Also recorded” adds a separate entry of the source.

How the values were obtained:
Assay type in all cases: in vivo, rat
[1] = tested on: atrial natriuretic peptide (ANP) mRNA; assay: RT-PCR of left ventricular ANP mRNA in dTGR; conditions: 9 weeks
Procedure: As an example, four-week-old, male dTGR are allowed to develop hypertension and are placed in metabolic cages at 5.5 weeks of age. Systolic blood pressure (tail-cuff) and 24 h albumin excretion (ELISA, CellTrend, Germany) are measured as described earlier by Muller et al. Am J Pathol. 2002, 161:1679-93 and Muller et al. Am J Pathol. 2004, 164:521-32. The dTGR are matched at week 6 in terms of 24 h albumin excretion and distributed in five groups of 19 rats each. Treatments begin when the rats are aged 6 weeks. The rats receive vehicle treatment, aliskiren at 0.3 mg/kg/day and 3 mg/kg/day (by subcutaneous minipump), valsartan 1 mg/kg/day, and valsartan 10 mg/kg/day (given in the food). The low dose of valsartan is selected as a threshold treatment to reduce mortality yet only minimally effect blood pressure and organ damage. We know from earlier studies that vehicle-treated animals would not survive beyond 8 weeks of age and thus this low dose valsartan group will serve as a control group at 9 weeks. Echocardiography (M-mode tracings in the short axis and Tissue-Doppler-imaging;, n=5-6 per group at weeks 7 and 9) is performed with a 15 MHz phased-array transducer under isoflurane anesthesia (Mazak et al. Circulation. 2004; 109:2792-800). Three measurements per heart are determined, averaged, and statistically analyzed. M-mode is performed in a LV short axis and measured according to the leading edge-method. Total wall thickness is calculated as sum of septum+left ventricular posterior wall. For RT-PCR, LV mRNA is isolated with TRIZOL (Gibco Life Technology). RT-PCR for α-myosin heavy chain (α-MHC) and β-MHC, as well as for atrial natriuretic peptide (ANP) is carried out in 25 μL SybrGreen PCR Master Mix (Applied Biosystems, Germany) containing […] primer and 1 μL of the reverse transcription reaction in a 5700 Sequence Detection System (Applied Biosystems). […]

[2] = tested on: double transgenic rats expressing human renin and human angiotensinogen (dTGR); assay: Cardiac hypertrophy index at sacrifice in dTGR; conditions: for cardiac hypertrophy index score: p<0.05
Procedure: To circumvent this problem, transgenic rats have been developed harboring either the human renin or the human angiotensinogen genes. […] Consequently, the single transgenic rats (i.e., transgenic for either human angiotensinogen or renin) are normotensive. […] As an example, four-week-old, male dTGR are allowed to develop hypertension and are placed in metabolic cages at 5.5 weeks of age. Systolic blood pressure (tail-cuff) and 24 h albumin excretion (ELISA, CellTrend, Germany) are measured as described earlier by Muller et al. Am J Pathol. 2002, 161:1679-93 and Muller et al. Am J Pathol. 2004, 164:521-32. The dTGR are matched at week 6 in terms of 24 h albumin excretion and distributed in five groups of 19 rats each. Treatments begin when the rats are aged 6 weeks. The rats receive vehicle treatment, aliskiren at 0.3 mg/kg/day and 3 mg/kg/day (by subcutaneous minipump), valsartan 1 mg/kg/day, and valsartan 10 mg/kg/day (given in the food). The low dose of valsartan is selected as a threshold treatment to reduce mortality yet only minimally effect blood pressure and organ damage. We know from earlier studies that vehicle-treated animals would not survive beyond 8 weeks of age and thus this low dose valsartan group will serve as a control group at 9 weeks. Echocardiography (M-mode tracings in the short axis and Tissue-Doppler-imaging;, n=5-6 per group at weeks 7 and 9) is performed with a 15 MHz phased-array transducer under isoflurane anesthesia (Mazak et al. Circulation. 2004; 109:2792-800). Three measurements per heart are determined, averaged, and statistically analyzed. M-mode is performed in a LV short axis and measured according to the leading edge-method. Total wall thickness is calculated as sum of septum+left ventricular posterior wall. Rats are sacrificed at age 9 weeks. The kidneys and hearts are removed and washed with ice-cold saline, blotted dry, and weighed. Tissue preparation and immunohistological techniques are performed as previously described Muller et al. Am J Pathol. 2002, 161:1679-93. Sections are incubated with primary antibodies against rat monocytes/macrophages (ED-1, Serotec, Germany), MHC II+, CD4+, and CD86+ cells (all BD Pharmingen, Germany). Scoring of infiltrated cells is performed using the program KS 300 3.0 (Zeiss, Germany). Fifteen different areas of each kidney (n=5 in all groups) are analyzed. A mean score for each animal is computed and used to derive a group mean score. Analyses are conducted without knowledge of the specific treatment.

[3] = tested on: α-myosin heavy chain (α-MHC) and β-MHC mRNA; assay: RT-PCR of left ventricular α-MHC and β-MHC mRNA in dTGR; conditions: left ventricle, 9 weeks
Procedure: As an example, four-week-old, male dTGR are allowed to develop hypertension and are placed in metabolic cages at 5.5 weeks of age. Systolic blood pressure (tail-cuff) and 24 h albumin excretion (ELISA, CellTrend, Germany) are measured as described earlier by Muller et al. Am J Pathol. 2002, 161:1679-93 and Muller et al. Am J Pathol. 2004, 164:521-32. The dTGR are matched at week 6 in terms of 24 h albumin excretion and distributed in five groups of 19 rats each. Treatments begin when the rats are aged 6 weeks. The rats receive vehicle treatment, aliskiren at 0.3 mg/kg/day and 3 mg/kg/day (by subcutaneous minipump), valsartan 1 mg/kg/day, and valsartan 10 mg/kg/day (given in the food). The low dose of valsartan is selected as a threshold treatment to reduce mortality yet only minimally effect blood pressure and organ damage. We know from earlier studies that vehicle-treated animals would not survive beyond 8 weeks of age and thus this low dose valsartan group will serve as a control group at 9 weeks. Echocardiography (M-mode tracings in the short axis and Tissue-Doppler-imaging;, n=5-6 per group at weeks 7 and 9) is performed with a 15 MHz phased-array transducer under isoflurane anesthesia (Mazak et al. Circulation. 2004; 109:2792-800). Three measurements per heart are determined, averaged, and statistically analyzed. M-mode is performed in a LV short axis and measured according to the leading edge-method. Total wall thickness is calculated as sum of septum+left ventricular posterior wall. For RT-PCR, LV mRNA is isolated with TRIZOL (Gibco Life Technology). RT-PCR for α-myosin heavy chain (α-MHC) and β-MHC, as well as for atrial natriuretic peptide (ANP) is carried out in 25 μL SybrGreen PCR Master Mix (Applied Biosystems, Germany) containing […] primer and 1 μL of the reverse transcription reaction in a 5700 Sequence Detection System (Applied Biosystems). Thermal cycling conditions comprise an initial denaturation step at 95° C. for 10 min, followed by 95° C. for 15 s and 65° C. for 1 min for 40 cycles. mRNA expression is standardized to the hypoxanthine phosphoribosyl transferase gene as a housekeeping gene (primer sequences available on request).

[4] = tested on: double transgenic rats expressing human renin and human angiotensinogen (dTGR); assay: M-mode echocardiography of LV wall thickness / hypertrophy in dTGR; conditions: dTGR at 9 weeks
Procedure: (§1) As an example, four-week-old, male dTGR are allowed to develop hypertension and are placed in metabolic cages at 5.5 weeks of age. Systolic blood pressure (tail-cuff) and 24 h albumin excretion (ELISA, CellTrend, Germany) are measured as described earlier by Muller et al. Am J Pathol. 2002, 161:1679-93 and Muller et al. Am J Pathol. 2004, 164:521-32. The dTGR are matched at week 6 in terms of 24 h albumin excretion and distributed in five groups of 19 rats each. Treatments begin when the rats are aged 6 weeks. The rats receive vehicle treatment, aliskiren at 0.3 mg/kg/day and 3 mg/kg/day (by subcutaneous minipump), valsartan 1 mg/kg/day, and valsartan 10 mg/kg/day (given in the food). The low dose of valsartan is selected as a threshold treatment to reduce mortality yet only minimally effect blood pressure and organ damage. We know from earlier studies that vehicle-treated animals would not survive beyond 8 weeks of age and thus this low dose valsartan group will serve as a control group at 9 weeks. Echocardiography (M-mode tracings in the short axis and Tissue-Doppler-imaging;, n=5-6 per group at weeks 7 and 9) is performed with a 15 MHz phased-array transducer under isoflurane anesthesia (Mazak et al. Circulation. 2004; 109:2792-800). Three measurements per heart are determined, averaged, and statistically analyzed. M-mode is performed in a LV short axis and measured according to the leading edge-method. Total wall thickness is calculated as sum of septum+left ventricular posterior wall.

[5] = tested on: double transgenic rats expressing human renin and human angiotensinogen (dTGR); assay: Tissue Doppler assessment of diastolic filling (Ea/Aa) in dTGR; conditions: dTGR at 9 weeks
Procedure: as §1
Tissue Doppler measures the velocity of the longitudinal cardiac movement at the basal septum, allowing assessment of diastolic filling Tissue Doppler measurements are performed with the sample volume in the basal septum in a four-chamber view. […] The measurements represent velocities of peak early (Ea) and late (Aa) diastolic expansion velocities. The Ea/Aa ratio is reported as an index of diastolic function.

[6] = aliskiren 3 mg/kg/d, listed as Alisk
[7] = valsartan 1 mg/kg/d in the food
[8] = valsartan 10 mg/kg/d in the food

SMILES: COCCCOc1cc(C[C@@H](C[C@H](N)[C@@H](O)C[C@H](C(=O)NCC(C)(C)C(N)=O)C(C)C)C(C)C)ccc1OC [aliskiren, 2(S),4(S),5(S),7(S)—N-(3-amino-2,2-dimethyl-3-oxopropyl)-2,7-di(1-methylethyl)-4-hydroxy-5-amino-8-[4-methoxy-3-(3-methoxy-propoxy)phenyl]-octanamide]
- LV ANP mRNA expression compared to valsartan 1 mg/kg/d treated dTGR ([1]; aliskiren 0.3 mg/kg/d): reduced
- LV ANP mRNA expression compared to valsartan 1 mg/kg/d treated dTGR ([1]; aliskiren 3 mg/kg/d): reduced
- cardiac hypertrophy index score ([2]; aliskiren 0.3 mg/kg/d subcutaneous minipump from week 6, age 9 weeks): decreases
- cardiac hypertrophy index score ([2]; aliskiren 3 mg/kg/d subcutaneous minipump from week 6, age 9 weeks): decreases
- cardiac hypertrophy index compared to valsartan 10 mg/kg/d treated dTGR ([2]; aliskiren 3 mg/kg/d, age 9 weeks): significantly lower
- shift from α-MHC expression to the fetal β-MHC isoform (LV mRNA) ([3]; aliskiren 0.3 mg/kg/d): prevent the shift
- shift from α-MHC expression to the fetal β-MHC isoform (LV mRNA) ([3]; aliskiren 3 mg/kg/d): prevent the shift
- shift from α-MHC expression to the fetal β-MHC isoform (LV mRNA) ([3]; aliskiren 3 mg/kg/d, listed as Aliskiren): most effective
- left ventricular hypertrophy (in words) ([4]; aliskiren 0.3 mg/kg/d): markedly ameliorated
- left ventricular hypertrophy (in words) ([4]; aliskiren 0.3 mg/kg/d, listed as Aliskiren): reduce left ventricular hypertrophy
- wall thickness (septum + LV posterior wall) ([4]; aliskiren 3 mg/kg/d subcutaneous minipump): about 2.2 mm
- left ventricular hypertrophy (in words) ([4]; aliskiren 3 mg/kg/d): markedly ameliorated; also recorded: lowest wall thickness values
- left ventricular hypertrophy (in words) [4, 6]: reduce left ventricular hypertrophy; also recorded: normalized LV dimensions
- Ea/Aa ratio ([5]; aliskiren 0.3 mg/kg/d (low dose) subcutaneous minipump): about 1.5
- Ea/Aa ratio ([5]; aliskiren 0.3 mg/kg/d (low dose) subcutaneous minipump, listed as Alisk): 1.5
- diastolic dysfunction / diastolic filling (in words) ([5]; aliskiren 0.3 mg/kg/d): markedly improve
- diastolic dysfunction / diastolic filling (in words) ([5]; aliskiren 0.3 mg/kg/d, listed as Alisk): appropriate diastolic filling
- Ea/Aa ratio ([5]; aliskiren 3 mg/kg/d (high dose) subcutaneous minipump): about 1.4
- Ea/Aa ratio ([5]; aliskiren 3 mg/kg/d (high dose) subcutaneous minipump, listed as Alisk): 1.5
- diastolic dysfunction / diastolic filling (in words) ([5]; aliskiren 3 mg/kg/d): markedly improve; also recorded: best diastolic filling
- diastolic dysfunction / diastolic filling (in words) [5, 6]: appropriate diastolic filling

SMILES: CCCCC(=O)N(Cc1ccc(-c2ccccc2-c2nnn[nH]2)cc1)[C@H](C(=O)O)C(C)C [valsartan]
- LV ANP mRNA expression compared to valsartan 1 mg/kg/d treated dTGR ([1]; valsartan 10 mg/kg/d): reduces the expression of this gene, but not to a significant degree
- cardiac hypertrophy index score ([2]; valsartan 10 mg/kg/d in the food from week 6, age 9 weeks): decreases
- shift from α-MHC expression to the fetal β-MHC isoform (LV mRNA) ([3]; valsartan 10 mg/kg/d): prevent the shift
- wall thickness (septum + LV posterior wall) [4, 7]: about 3.4 mm
- left ventricular hypertrophy (in words) ([4]; valsartan 1 mg/kg/d): concentric hypertrophy; also recorded: severe left ventricular hypertrophy; also recorded: severe septal and posterior wall hypertrophy
- wall thickness (septum + LV posterior wall) [4, 8]: about 2.7 mm
- left ventricular hypertrophy (in words) ([4]; valsartan 10 mg/kg/d): markedly ameliorated
- left ventricular hypertrophy (in words) ([4]; valsartan 10 mg/kg/d, listed as Val): reduces septal and posterior wall hypertrophy substantially
- Ea/Aa ratio [5, 7]: about 0.68
- Ea/Aa ratio ([5]; valsartan 1 mg/kg/d in the food, listed as Val): 0.66
- diastolic dysfunction / diastolic filling (in words) ([5]; valsartan 1 mg/kg/d): marked diastolic dysfunction
- diastolic dysfunction / diastolic filling (in words) ([5]; valsartan 1 mg/kg/d, listed as Val): severe diastolic dysfunction
- diastolic dysfunction / diastolic filling (in words) ([5]; valsartan 10 mg/kg/d (high dose)): still present
- diastolic dysfunction / diastolic filling (in words) ([5]; valsartan 10 mg/kg/d (high dose), listed as Val): indicating diastolic dysfunction
- Ea/Aa ratio [5, 8]: about 1.0
- Ea/Aa ratio ([5]; valsartan 10 mg/kg/d in the food, listed as Val): 1.0
